Reference: patent US9512175B2, “Macrocyclic inhibitors of flaviviridae viruses” (Gilead Sciences, Inc., priority 2012, dated 2016)
pIC50: −log10 of the molar value. Like-named read-outs stand apart in the source and are kept apart here.

Experiments:
cyclophilin A = cyclophilin A (Homo sapiens, UniProt P62937); test: Cyclophilin A TR-FRET competitive binding assay; details: IC50 ranges, competition with CsA-Cy5 for His-tagged CypA, two-hour incubation
Procedure: Cyclophilin A TR-FRET Competitive Binding Assay
Inhibitor potency was measured using a competitive binding assay with a time-resolved fluorescence resonance energy transfer (TR-FRET) readout. […] An IC50 value was calculated using a four-parameter logistic fit.

[1] = system: HCV replicon (Replicon 1a); test: anti-HCV activity in Huh-7 cell line harboring a HCV replicon (Replicon 1a); assay type: cell-based; details: Hepatitis C virus, Huh-7, 72 h
[2] = read-out: Replicon 1a % inhibition at 1 μM
[3] = read-out: Replicon 1a % inhibition at 1 μM, 1 μM, human hepatoma Huh-7 HCV replicon cells, 3 days, luciferase readout

cyclophilin A, sequence (P62937 whole entry, species assumed): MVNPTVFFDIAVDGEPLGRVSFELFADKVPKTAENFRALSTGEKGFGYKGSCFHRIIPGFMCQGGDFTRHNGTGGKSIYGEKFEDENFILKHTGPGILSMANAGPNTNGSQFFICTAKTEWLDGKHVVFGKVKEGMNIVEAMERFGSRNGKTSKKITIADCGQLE

In the case of `CC(C)[C@@H]1NC(=O)C(C)(C)/C=C/c2ccc3ccc(nc3c2)[C@@H](C(F)(F)F)NC(=O)[C@@H]2CCCN(N2)C(=O)[C@H](C)NC1=O` [Compound 13], the pIC50 (cyclophilin A; read-out: TR-FRET) was > 7.00 and the inhibition at 1 µM [1, 2] was 87%.

With `CC(C)[C@@H]1NC(=O)C/C=C/c2ccc3ncc(cc3c2)[C@@H](C)OC(=O)[C@@H]2CCCN(N2)C(=O)[C@H](C)NC1=O` [Compound 14] the pIC50 (cyclophilin A; read-out: TR-FRET) was > 7.00 and the inhibition at 1 µM [1, 3] was 94%.

`CC(C)[C@@H]1NC(=O)C/C=C/c2cnc3ccc(cc3c2)[C@@H](C)OC(=O)[C@@H]2CCCN(N2)C(=O)[C@H](C)NC1=O` [Compound 15] was tested, and the pIC50 (cyclophilin A; read-out: TR-FRET) was > 7.00 and the inhibition at 1 µM [1, 3] was 99%.

With `CC(C)[C@@H]1NC(=O)C/C=C/c2ccc3ccc(cc3n2)[C@@H](C)OC(=O)[C@@H]2CCCN(N2)C(=O)[C@H](C)NC1=O` [Compound 16] the pIC50 (cyclophilin A; read-out: TR-FRET) was 6.00 to 7.00 and the inhibition at 1 µM [1, 3] was 94%.

With `CC(C)[C@@H]1NC(=O)C(C)(C)/C=C/c2ccc3cnc(cc3c2)[C@@H](C)OC(=O)[C@@H]2CCCN(N2)C(=O)[C@H](C)NC1=O` [Compound 17] the pIC50 (cyclophilin A; read-out: TR-FRET) was > 7.00 and the inhibition at 1 µM [1, 3] was 100%.

In the case of `CC(C)[C@@H]1NC(=O)C(C)(C)CCc2ccc3cnc(cc3c2)[C@@H](C)OC(=O)[C@@H]2CCCN(N2)C(=O)[C@H](C)NC1=O` [Compound 18], the pIC50 (cyclophilin A; read-out: TR-FRET) was > 7.00 and the inhibition at 1 µM [1, 3] was 94%.

For `CC[C@@H]1/C=C/c2cc3cc(ccc3cn2)[C@@H](C)OC(=O)[C@@H]2CCCN(N2)C(=O)[C@H](C)NC(=O)[C@H](C(C)C)NC1=O` [Compound 19], the pIC50 (cyclophilin A; read-out: TR-FRET) was > 7.00 and the inhibition at 1 µM [1, 3] was 97%.

`CC1/C=C/c2cc3cc(ccc3cn2)[C@@H](C)OC(=O)[C@@H]2CCCN(N2)C(=O)[C@H](C)NC(=O)[C@H](C(C)C)NC1=O` (stereo partly drawn) [Compound 20] was tested, and the pIC50 (cyclophilin A; read-out: TR-FRET) was > 7.00 and the inhibition at 1 µM [1, 3] was 99%.

For `CC(C)[C@@H]1NC(=O)[C@H](C)C/C=C/c2cc3cc(ccc3cn2)[C@@H](C)OC(=O)[C@@H]2CCCN(N2)C(=O)[C@H](C)NC1=O` [Compound 21], the pIC50 (cyclophilin A; read-out: TR-FRET) was > 7.00 and the inhibition at 1 µM [1, 3] was 93%.

In the case of `CC(C)[C@@H]1NC(=O)C/C=C/c2cc3cc(ccc3cn2)[C@@H](C(F)(F)F)NC(=O)[C@@H]2CCCN(N2)C(=O)[C@H](C)NC1=O` [Compound 23], the pIC50 (cyclophilin A; read-out: TR-FRET) was > 7.00 and the inhibition at 1 µM [1, 3] was 99%.

`CO[C@@H]1CC/C=C/c2ccc3c(c2)[C@@H](CC3)N(C)C(=O)[C@@H]2CCCN(N2)C(=O)[C@H](C)NC(=O)[C@H](C(C)C)NC(=O)[C@@H]1C` [Compound 25] was tested, and the pIC50 (cyclophilin A; TR-FRET) was 6.00 to 7.00 and the inhibition at 1 µM [1, 2] was 71%.

`CC(C)[C@@H]1NC(=O)[C@H](C)/C=C/c2ccc3ccc(nc3c2)[C@@H](C)OC(=O)[C@@H]2CCCN(N2)C(=O)[C@H](C)NC1=O` [Compound 26] was tested, and the pIC50 (cyclophilin A; TR-FRET) was > 7.00 and the inhibition at 1 µM [1, 2] was 99%.

`CC(C)[C@@H]1NC(=O)[C@@H](C)/C=C/c2ccc3ccc(nc3c2)[C@@H](C)OC(=O)[C@@H]2CCCN(N2)C(=O)[C@H](C)NC1=O` [Compound 27] was tested, and the pIC50 (cyclophilin A; TR-FRET) was > 7.00 and the inhibition at 1 µM [1, 2] was 100%.

Work on `CO[C@@H]1CC/C=C/c2cccc(c2)C2CCCCN2C(=O)[C@@H]2CCCN(N2)C(=O)[C@H](C)NC(=O)[C@H](C(C)C)NC(=O)[C@@H]1C` (stereo partly drawn) [Compound 28] yielded a pIC50 (cyclophilin A; read-out: TR-FRET) of 6.00 to 7.00 and an inhibition at 1 µM [1, 3] of 56%.

In the case of `CC(C)[C@@H]1NC(=O)C/C=C/c2ccc3nnc(cc3c2)[C@@H](C)OC(=O)[C@@H]2CCCN(N2)C(=O)[C@H](C)NC1=O` [Compound 32], the pIC50 (cyclophilin A; read-out: TR-FRET) was > 7.00 and the inhibition at 1 µM [1, 3] was 71%.

For `CO[C@@H]1/C=C/c2cc3cc(ccc3cn2)[C@@H](C)OC(=O)[C@@]2(C)CCCN(N2)C(=O)[C@H](C)NC(=O)C(C(C)C)NC(=O)[C@@H]1C` (stereo partly drawn) [Compound 33], the pIC50 (cyclophilin A; read-out: TR-FRET) was 5.00 to 6.00 and the inhibition at 1 µM [1, 3] was 14%.

`CC(C)[C@@H]1NC(=O)[C@H](C)C/C=C/COc2ccc(F)c(c2)[C@@H](C)OC(=O)C2CCCN(N2)C(=O)[C@H](C)NC1=O` (stereo partly drawn) [Compound 35] was tested, and the pIC50 (cyclophilin A; TR-FRET) was > 7.00 and the inhibition at 1 µM [1, 2] was 94%.

In the case of `CC(C)[C@@H]1NC(=O)[C@H](C)CCCCOc2ccc(F)c(c2)[C@@H](C)OC(=O)[C@@H]2CCCN(N2)C(=O)[C@H](C)NC1=O` [Compound 36], the pIC50 (cyclophilin A; read-out: TR-FRET) was > 7.00 and the inhibition at 1 µM [1, 3] was 73%.

`CO[C@@H]1/C=C/COc2cccc(c2)[C@@H](C(C)C)NC(=O)[C@@H]2CCCN(N2)C(=O)[C@H](C)NC(=O)[C@H](C(C)C)NC(=O)[C@@H]1C` [Compound 37, (E)-(2R,5S,11 S,14S,17R,18R)-2,14-Diisopropyl-18-methoxy-11,17-dimethyl-22-oxa-3,9,12,15,28-pentaaza-tricyclo[21.3.1.1*5,9*]octacosa-1 (27),19,23,25-tetraene-4,10,13,16-tetraone] was tested, and the pIC50 (cyclophilin A; TR-FRET) was > 7.00 and the inhibition at 1 µM [1, 2] was 76%.

With `CC(C)[C@@H]1NC(=O)COc2ccc(cc2)-c2cccc(c2)[C@@H](C)OC(=O)[C@@H]2CCCN(N2)C(=O)[C@H](C)NC1=O` [Compound 38] the pIC50 (cyclophilin A; read-out: TR-FRET) was > 7.00 and the inhibition at 1 µM [1, 3] was 98%.

`CC(C)[C@@H]1NC(=O)[C@H](C)Oc2ccc(cc2)-c2cccc(c2)[C@@H](C)OC(=O)[C@@H]2CCCN(N2)C(=O)[C@H](C)NC1=O` [Compound 39] was tested, and the pIC50 (cyclophilin A; read-out: TR-FRET) was > 7.00 and the inhibition at 1 µM [1, 3] was 98%.

`CC(C)[C@@H]1NC(=O)[C@@H](C)Oc2ccc(cc2)-c2cccc(c2)[C@@H](C)OC(=O)[C@@H]2CCCN(N2)C(=O)[C@H](C)NC1=O` [Compound 40] was tested, and the pIC50 (cyclophilin A; read-out: TR-FRET) was > 7.00 and the inhibition at 1 µM [1, 3] was 96%.

For `CC(C)[C@@H]1NC(=O)COc2ccc(cc2)-c2cccc(n2)[C@@H](C)OC(=O)[C@@H]2CCCN(N2)C(=O)[C@H](C)NC1=O` [Compound 41], the pIC50 (cyclophilin A; read-out: TR-FRET) was > 7.00 and the inhibition at 1 µM [1, 3] was 96%.

Work on `CC(C)[C@@H]1NC(=O)CCn2cc(cn2)-c2cccc(c2)[C@@H](C)OC(=O)[C@@H]2CCCN(N2)C(=O)[C@H](C)NC1=O` [Compound 42] yielded a pIC50 (cyclophilin A; read-out: TR-FRET) of 6.00 to 7.00 and an inhibition at 1 µM [1, 3] of 16%.

With `CC(C)[C@@H]1NC(=O)CCc2ccc(cc2)-c2cccc(c2)[C@@H](C)OC(=O)[C@@H]2CCCN(N2)C(=O)[C@H](C)NC1=O` [Compound 43] the pIC50 (cyclophilin A; read-out: TR-FRET) was > 7.00 and the inhibition at 1 µM [1, 3] was 97%.

In the case of `CC(C)[C@@H]1NC(=O)CCc2ccc(cn2)-c2cccc(c2)[C@@H](C)OC(=O)[C@@H]2CCCN(N2)C(=O)[C@H](C)NC1=O` [Compound 44], the pIC50 (cyclophilin A; read-out: TR-FRET) was > 7.00 and the inhibition at 1 µM [1, 3] was 78%.

For `CC(C)[C@@H]1NC(=O)CCc2ccc(nc2)-c2cccc(c2)[C@@H](C)OC(=O)[C@@H]2CCCN(N2)C(=O)[C@H](C)NC1=O` [Compound 45], the pIC50 (cyclophilin A; read-out: TR-FRET) was > 7.00 and the inhibition at 1 µM [1, 3] was 80%.

With `CC(C)[C@@H]1NC(=O)[C@H](C)CCCc2cc3cc(ccc3cn2)[C@@H](C)OC(=O)[C@@H]2CCCN(N2)C(=O)[C@H](C)NC1=O` [Compound 46] the pIC50 (cyclophilin A; read-out: TR-FRET) was > 7.00 and the inhibition at 1 µM [1, 3] was 90%.

`C[C@@H]1NC(=O)[C@H](CO)NC(=O)C/C=C/c2cc3cc(ccc3cn2)[C@@H](C)OC(=O)[C@@H]2CCCN(N2)C1=O` [Compound 47] was tested, and the pIC50 (cyclophilin A; read-out: TR-FRET) was 6.00 to 7.00 and the inhibition at 1 µM [1, 3] was 9%.

For `C[C@@H]1NC(=O)[C@H]([C@@H](C)O)NC(=O)C/C=C/c2cc3cc(ccc3cn2)[C@@H](C)OC(=O)[C@@H]2CCCN(N2)C1=O` [Compound 48], the pIC50 (cyclophilin A; read-out: TR-FRET) was > 7.00 and the inhibition at 1 µM [1, 3] was 40%.

`C[C@@H]1NC(=O)[C@H](CCn2ccnn2)NC(=O)C(C)(C)/C=C/c2cc3cc(ccc3cn2)[C@@H](C)OC(=O)[C@@H]2CCCN(N2)C1=O` [Compound 50] showed a pIC50 (cyclophilin A; read-out: TR-FRET) of 6.00 to 7.00 and an inhibition at 1 µM [1, 2] of 12%.

For `C=CC[C@@H]1NC(=O)C(C)(C)/C=C/c2cc3cc(ccc3cn2)[C@@H](C)OC(=O)[C@@H]2CCCN(N2)C(=O)[C@H](C)NC1=O` [Compound 52], the pIC50 (cyclophilin A; read-out: TR-FRET) was > 7.00 and the inhibition at 1 µM [1, 3] was 98%.

`C[C@@H]1NC(=O)[C@H](C2CCCCC2)NC(=O)C/C=C/c2cc3cc(ccc3cn2)[C@@H](C)OC(=O)[C@@H]2CCCN(N2)C1=O` [Compound 53] showed a pIC50 (cyclophilin A; read-out: TR-FRET) of 6.00 to 7.00 and an inhibition at 1 µM [1, 3] of 89%.
